Reference: patent publication US20190367516A1 (Bayer Pharma Aktiengesellschaft, priority 2015, published 2019)
Read-outs that look alike come from different tables or passages of the source.

Target: T1, human M2 receptor (Homo sapiens, UniProt P08172)
T1 sequence (P08172 1-466): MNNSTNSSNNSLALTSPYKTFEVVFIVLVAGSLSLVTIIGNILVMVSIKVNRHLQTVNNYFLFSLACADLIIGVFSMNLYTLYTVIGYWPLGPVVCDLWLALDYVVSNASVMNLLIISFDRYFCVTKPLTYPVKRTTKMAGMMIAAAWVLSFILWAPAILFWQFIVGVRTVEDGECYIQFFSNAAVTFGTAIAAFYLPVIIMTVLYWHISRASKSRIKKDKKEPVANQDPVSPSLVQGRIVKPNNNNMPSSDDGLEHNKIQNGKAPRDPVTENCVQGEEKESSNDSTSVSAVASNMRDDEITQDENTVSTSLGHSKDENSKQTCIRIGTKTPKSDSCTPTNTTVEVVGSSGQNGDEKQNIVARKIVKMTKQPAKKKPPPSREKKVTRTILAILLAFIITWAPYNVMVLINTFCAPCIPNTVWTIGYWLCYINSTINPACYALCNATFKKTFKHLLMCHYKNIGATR
Settings: for EC50: Receptor activity EC50, allosteric potency at EC20 acetylcholine, in some cases mean of two or more determinations

[1] = read-out: Efficiency, boosting of the acetylcholine effect at EC20 acetylcholine concentration, M2-GIRK1/4 reporter cells

Row | EC50 (M2-GIRK1/4 reporter cells) | Emax [1] | Efficiency (boosting of the acetylcholine effect at EC20 acetylcholine concentration, M2-GIRK1/4 reporter cells) | SMILES | Emax (read-out: Efficiency)
1 | 16 nM | 99.5% | – | CC(C)C(NC(=O)c1cn(-c2c(F)cc(F)cc2F)c2nc(N3CCNC3=O)ccc2c1=O)C(F)(F)F (racemic) [Example 536, 4-Oxo-7-(2-oxoimidazolidin-1-yl)-N-[1,1,1-trifluoro-3-methylbutan-2-yl]-1-(2,4,6-trifluorophenyl)-1,4-dihydro-1,8-naphthyridine-3-carboxamide] | –
2 | 9 nM | 90% | – | CC(NC(=O)c1cn(-c2c(F)cc(F)cc2F)c2nc(N3CCNC3=O)ccc2c1=O)C(F)(F)C(F)(F)F (racemic) [Example 540, 4-Oxo-7-(2-oxoimidazolidin-1-yl)-N-[3,3,4,4,4-pentafluorobutan-2-yl]-1-(2,4,6-trifluorophenyl)-1,4-dihydro-1,8-naphthyridine-3-carboxamide] | –
3 | – | – | – | CC(NC(=O)c1cn(-c2c(F)cc(F)cc2F)c2nc(N3C[C@@H](O)[C@H](O)C3)ccc2c1=O)C(F)(F)C(F)(F)F (mixture of isomers) [Example 549, 7-[(3R,4R)-3,4-Dihydroxypyrrolidin-1-yl]-4-oxo-N-[3,3,4,4,4-pentafluorobutan-2-yl]-1-(2,4,6-trifluorophenyl)-1,4-dihydro-1,8-naphthyridine-3-carboxamide] | 100%
4 | 14 nM | 96% | – | CC(C)C(NC(=O)c1cn(-c2c(F)cc(F)cc2F)c2nc(N3C[C@@H](O)[C@H](O)C3)ccc2c1=O)C(F)(F)F (mixture of isomers) [Example 552, 7-[(3R,4R)-3,4-Dihydroxypyrrolidin-1-yl]-4-oxo-N-[1,1,1-trifluoro-3-methylbutan-2-yl]-1-(2,4,6-trifluorophenyl)-1,4-dihydro-1,8-naphthyridine-3-carboxamide] | –
5 | 10 nM | 100% | – | CCC(NC(=O)c1cn(-c2ccc(F)cc2F)c2nc(N3C[C@@H](O)CC3=O)ccc2c1=O)C(F)(F)C(F)(F)F (mixture of isomers) [Example 556, 1-(2,4-Difluorophenyl)-7-[(4S)-4-hydroxy-2-oxopyrrolidin-1-yl]-4-oxo-N-[1,1,1,2,2-pentafluoropentan-3-yl]-1,4-dihydro-1,8-naphthyridine-3-carboxamide] | –
6 | 17 nM | 100% | – | O=C(NC(c1ccccc1Cl)C(F)(F)F)c1cn(-c2c(F)cc(F)cc2F)c2nc(N3C[C@@H](O)[C@H](O)C3)ccc2c1=O (mixture of isomers) [Example 560, N-[1-(2-Chlorophenyl)-2,2,2-trifluoroethyl]-7-[(3R,4R)-3,4-dihydroxypyrrolidin-1-yl]-4-oxo-1-(2,4,6-trifluorophenyl)-1,4-dihydro-1,8-naphthyridine-3-carboxamide] | –
7 | 20 nM | 100% | – | O=C(NC(c1ccccc1Cl)C(F)(F)F)c1cn(-c2c(F)cc(F)cc2F)c2nc(N3CCNC3=O)ccc2c1=O (racemic) [Example 563, N-[1-(2-Chlorophenyl)-2,2,2-trifluoroethyl]-4-oxo-7-(2-oxoimidazolidin-1-yl)-1-(2,4,6-trifluorophenyl)-1,4-dihydro-1,8-naphthyridine-3-carboxamide] | –
8 | – | – | 99.5% | O=C(NC(c1ccccc1Cl)C(F)(F)F)c1cn(-c2c(F)cc(F)cc2F)c2nc(N3CCNC3=O)ccc2c1=O (racemic) [Example 565, N-[1-(2-Chlorophenyl)-2,2,2-trifluoroethyl]-4-oxo-7-(2-oxoimidazolidin-1-yl)-1-(2,4,6-trifluorophenyl)-1,4-dihydro-1,8-naphthyridine-3-carboxamide] | –
9 | 49 nM | 100% | – | CC(C)(CC(F)(F)F)NC(=O)c1cn(-c2c(F)cc(F)cc2F)c2nc(N3CC(O)C4(CC4)C3)ccc2c1=O (racemic) [Example 569, 7-[7-Hydroxy-5-azaspiro[2.4]hept-5-yl]-4-oxo-N-(4,4,4-trifluoro-2-methylbutan-2-yl)-1-(2,4,6-trifluorophenyl)-1,4-dihydro-1,8-naphthyridine-3-carboxamide] | –
